As usually defined, the CC50 is the concentration giving 50% cytotoxicity. As a reminder, the IC50 is the concentration needed to halve the response being measured. A high value points to weaker potency.

Experimental findings from PMC8777952, “Lignin Nanoparticles Deliver Novel Thymine Biomimetic Photo-Adducts with Antimelanoma Activity” (International Journal of Molecular Sciences, 2022) are described below.

Data set [1] in a line: MTT cell viability assay, FB789 reference cell line. Format: cell-based. As to conditions: FB789 cells (normal human fibroblast). From the text:
(§1) Preliminary sunscreen data of 4a-d have been reported focusing on SKH1-E cell line, human abdominal skin explants, and in vivo hairless mouse models. Data for photo-adducts 6a-d, 7a-d, and 8a-d are not available. Thymine photo-adducts are well recognized as responsible for the activation of different molecular pathways involved in the cellular response to UV damage, including DNA repair system, melanogenesis, and Nucleotide Excision Repair (NER) system. In addition, TOP1ccs trapped near photo-adducts activates BER and remove (6-4)PPs in NER-deficient cells. TOP1 is highly expressed in malignant tumors, including carcinomas of the colon, prostate, ovary, lung, and melanoma. […] For this reason, we decided to study the antimelanoma activity of 4a-d, 6a-d, and 8a-d against two melanoma cancer cell lines, namely SK-MEL28 and RPMI7951 bearing a different genetic background. The antimelanoma activity was determined using the MTT cell viability assay, following the absorbance change (λmax 570 nm and 630 nm). The human FB789 cell line was used as reference. The CC50 (cytotoxic concentration that causes death of 50% of viable cells), IC50 (minimum concentration inhibiting 50% of the melanoma cells), and Selective Index (SI) (ratio between IC50 of reference cell line versus melanoma cell line) values are reported in Table 5. […] Compounds 4a-d were ineffective against melanoma cell lines. […] 234. Next, the antimelanoma activity of compounds 8a and 8b was evaluated after loading inside LNPs.
(§2) FB789 was grown in DMEM/F10, RPMI7951 melanoma cancer cells were grown in Minimal Essential Medium (MEM), while SK-Mel 28 melanoma cancer cells were grown in Dulbecco’s Modified Eagle Medium (DMEM). All culture media were supplemented with 10% Fetal Bovine Serum (FBS) plus 1.0 mM glutamine (40 µg/mL). The antimelanoma activity of 4a-d, 6a-d, and 8a-d was evaluated by MTT viability assay according to reference. Briefly, aliquots of the appropriate compound ([…]) were solubilized in dimethyl sulfoxide (one drops, DMSO) and administered to the selected cell line. After incubation for 3 h at 37 °C with MTT (0.5 mg/mL) the supernatant was removed, and […] of lysis solution (10% SDS and 0.6% acetic acid) was added to dissolve the formazan crystals. Optical density detection was performed by DTX880 Multimode Detector (Beckman Coulter) with 630 nm (background) and 570 nm filters. The percentage of cell viability was calculated as follows: % cell viability = 100–% cell cytotoxicity. The experiments for the evaluation of the antimelanoma activity of LNPs/8a and LNPs/8b were performed in a similar way using the appropriate amount of nanoparticles containing 1.0 mmol of the active compound and analyzing the antimelanoma activity at three different release times (2, 4, and 24 h).

A further data set relates to RPMI7951. Nature of the data set: MTT cell viability assay, RPMI7951 melanoma cells. It counts as cell-based, human.
From the text: as §1, §2

Data set [2] in a line: Loading capacity and loading efficiency of lignin nanoparticles. Format: physicochemical. The procedure:
A further increase in the secondary solvent afforded low stable colloidal LNPs (18 mL; Table 3, entry 4) and aggregates (24 mL; Table 3, entry 5). Finally, LNPs were not formed after the addition of high volumes of deionized water (Table 3, entries 6–8). The optimal conditions affording stable colloidal LNPs (1:5 w/w and 1:10 w/w 4a/KL ratio, 3.0 mL of DMI/water 2:1 v/v, and 6.0 mL of secondary solvent) were successively applied for the encapsulation of 4b-d, and of the most abundant photo-adducts 6a-d and 8a-d. The loading capacity (LC) and loading efficiency (LE) Equations (1) and (2) were measured as a function of the concentration of the encapsulated compound [55, 56, 57, 58].
LNPs were separated by centrifugation, and the supernatant was analyzed by HPLC at λmax value of the encapsulated compound (271 nm for 4a-d, 191 nm for 6a-d, and 192 nm for 8a-d, respectively). Irrespective from the experimental conditions, the highest LE and LC were obtained in the presence of the highest value of the compound/KL ratio (compound/KL ratio of 1:5). […] (1) LC %:weight of starting drug−weight of unloaded drug/weight of lignin (2) LE %:weight of starting drug−weight of unloaded drug/weight of starting drug
LNPs were produced and loaded by the nanoprecipitation technique. The appropriate compound (3 mg) was dissolved in DMI/water (3.0 mL) at 50 °C under gentle stirring conditions followed by the addition of KL (15 mg). The fast addition of deionized water (6.0 mL) instantaneously produced LNPs. LNPs were then recovered by centrifugation (7500 rpm), washed with deionized water (10 mL) for 3 times, and lyophilized. The loading capacity (LC) and loading efficiency (LE) were evaluated by UHPLC analysis.

The next data set has as its system SK-Mel28. Kind of data set: MTT cell viability assay, SK-Mel28 melanoma cells. Format: cell-based, human.
From the text: as §1, §2

The nature of data set [3]: Cumulative (kinetic) release from lignin nanoparticles by dialysis. Format: physicochemical. Particulars: pH 5.5, first 4 h, 37.5 °C. The procedure: The cumulative releasing capacity of LNPs was evaluated as previously reported in the literature and normalized with respect to the total amount of entrapped compound. In a typical procedure, the appropriate LNPs (7.5 mg) were suspended in water (3.0 mL) and dialyzed against deionized water (60.0 mL) at two selected pH values (pH 7.4 and 5.5, respectively) at 37.5 °C for 24 h. The amount of released compound was measured by UV–vis spectrophotometry at the optimal λmax value for each compound by sampling the dialysis solution at appropriate time intervals (Figure 4). The withdrawn volume was replaced by corresponding deionized water in order to maintain constant the volume of the solution (Section 3).
LNPs (7.5 mg, compound/KL 1:5 ratio) were suspended in water (3.0 mL), placed in a dialysis membrane, and immersed in PBS buffer (60 mL) at two selected pH values (7.4 and 5.5, respectively) at 37.5 °C for 24 h. A similar procedure was applied solubilizing LNPs/8b (7.5 mg) water (3.0 mL), followed by dialysis against the culture medium DMEM (60 mL). […] The quantification of released compound was conducted by UV–Vis spectrophotometry at the λmax characteristic for each type of compound (271 nm for 4a-d, and 191 and 192 nm for 6a-d and 8a-d, respectively) using semi-micro cuvettes. […]

Setting [4] is: 24 h, ratio reference cell line FB789 versus melanoma cell line.

For the compound `Cc1cn(CCCCCCn2cc(C)c(=O)[nH]c2=O)c(=O)[nH]c1=O` [Compound 4d, N1,N1′-(hexane-1,6-diyl)bis-thymine], the CC50 at 24 h in data set [1] stood at 392 ± 5.2 µM. The “SI (RPMI7951)” value with RPMI7951 (setting [4]) is 1.14. Moreover, the IC50 with RPMI7951 (Homo sapiens, RPMI-7951, 24 h) came to 343 ± 7.6 µM; in the data set on SK-Mel28 (Homo sapiens, SK-MEL-28, 24 h), 169 ± 4.6 µM. In addition, the LC% in data set [2] (Compd/KL ratio 1:5) was found to be 14.37%; in data set [2] (Compd/KL ratio 1:10) it was 7.14%. For the same compound, the results for the LE% in data set [2] (Compd/KL ratio 1:5) and in data set [2] (Compd/KL ratio 1:10) were 71.85% and 71.41%, respectively. For the same compound, in the data set on SK-Mel28 (setting [4]), the “SI (SKMel28)” value worked out at 2.3. In data set [3], this compound showed a cumulative release of 71%.
